Test results published in patent US5043336A (priority 1990, dated 1991).
Where a name gives a salt, the structure may show the parent alone.

Assays:
[1] = tested on: CCRF-CEM cell line (human leukemic cells); assay: CCRF-CEM Cytotoxicity Assay (growth inhibition of human leukemic cells, 72 h); assay type: cell-based; conditions: 37° C.; for IC50: Homo sapiens, CCRF-CEM, 72 h, read-out: IC50 (concentration giving 50% growth inhibition)
Protocol: The CEM cells were grown in RPMI 1640 media (MA Bioproducts) at 37° C. in humidified atmospheric conditions of 95% air and 5% carbon dioxide. The cells were grown in static suspension and maintained in log growth phase at a concentration of 3-7×10^5 cells/ml. The cells were dispersed in wells at a concentration of 4.8×10^4 /well. The drug was dissolved in dimethyl sulfoxide or water and was added at different dilutions to the cluster plates (wells). The cluster plates were incubated at 37° C. for 72 hours. After 72 hours the wells were read using a ZBI Coulter particle counter. Table 2 below gives the results of such testing of several compounds represented by Formula I above. In the table, Column 1 gives the name of the compound and Column 2 gives the IC50 (concentration giving 50% growth inhibition) in μg/ml.

pKa (66% DMF) = assay type: physicochemical
[2] = trial test of the water solubility of the salt; assay type: physicochemical; conditions: after adjusting pH to 3.6, before additional 0.5 ml of 2% sulfuric acid
Protocol: All of the 4-desacetyl VLB C-3 N^2 -(hexahydro-2-methyl-7-oxo-1H-azepin-1-yl)carboxhydrazide prepared from Example 6 was dissolved in 50 ml of ethanol. The initial pH of 4.9 was adjusted to 3.6 with 2% sulfuric acid in ethanol. […] This material was evaporated to dryness in vacuo, which yielded 750 mg of the title compounds.

[3] = tested on: Ridgeway osteogenic sarcoma; conditions: transplanted tumors in mice; cited from earlier work
Gardner lymphosarcoma = conditions: transplanted tumors in mice; cited from earlier work
P1534(J) leukemia = conditions: transplanted tumors in mice; cited from earlier work
[4] = tested on: experimental malignancies; conditions: in vivo; cited from earlier work
[5] = in humans; cited from earlier work
[6] = tested on: vincristine-resistant leukemias; conditions: in humans; cited from earlier work

In the case of `CC[C@]1(O)C[C@@H]2CN(CCc3c([nH]c4ccccc34)[C@@](C(=O)OC)(c3cc4c(cc3OC)N(C)[C@H]3[C@@](O)(C(=O)NN5C(=O)CCC5C)[C@H](O)[C@]5(CC)C=CCN6CC[C@]43[C@@H]65)C2)C1` (single isomer, unassigned) [4-Desacetyl VLB C-3 N^2 -(2-methyl-5-oxo-1-pyrrolidinyl)carb] [4-Desacetyl VLB C-3 N^2-(2-methyl-5-oxo-1-pyrrolidinyl)carboxhydrazide(Isomer 2) sulfate salt], the “IC50 (concentration giving 50% growth inhibition)” value ([1]; sulfate salt) is reported as 0.09 µg/mL.
`CC[C@]1(O)C[C@@H]2CN(CCc3c([nH]c4ccccc34)[C@@](C(=O)OC)(c3cc4c(cc3OC)N(C)[C@H]3[C@@](O)(C(=O)NN5C(=O)CCC5C)[C@H](O)[C@]5(CC)C=CCN6CC[C@]43[C@@H]65)C2)C1` (single isomer, unassigned) [4-Desacetyl VLB C-3 N^2-(2-methyl-5-oxo-1-pyrrolidinyl)carboxhydrazide(Isomer 1) sulfate salt] gave an IC50 [1] of 0.1 µg/mL.
`CC[C@]1(O)C[C@@H]2CN(CCc3c([nH]c4ccccc34)[C@@](C(=O)OC)(c3cc4c(cc3OC)N(C)[C@H]3[C@@](O)(C(=O)N5N=C(C)CCCC5=O)[C@H](O)[C@]5(CC)C=CCN6CC[C@]43[C@@H]65)C2)C1` [4-Desacetyl VLB C-3 N^1-(4,5,6,7-tetrahydro-3-methyl-7-oxo-1H-1,2-diazepin-1-yl)carboxhydrazide sulfate salt] gave an IC50 [1] of 0.019 µg/mL.
`CC[C@]1(O)C[C@@H]2CN(CCc3c([nH]c4ccccc34)[C@@](C(=O)OC)(c3cc4c(cc3OC)N(C)[C@H]3[C@@](O)(C(=O)NNC(C)CCC(=O)O)[C@H](O)[C@]5(CC)C=CCN6CC[C@]43[C@@H]65)C2)C1` (some centres unmarked) [4-Desacetyl VLB C-3 N^2-(3-carboxy-1-methylpropyl)carboxhydrazide] gave a pKa (pKa (66% DMF); first value listed) of 5.3, a pKa (pKa (66% DMF); second value listed) of 6.9 and a pKa (pKa (66% DMF); third value listed) of 7.9.
Compound `CC[C@]1(O)C[C@@H]2CN(CCc3c([nH]c4ccccc34)[C@@](C(=O)OC)(c3cc4c(cc3OC)N(C)[C@H]3[C@@](O)(C(=O)NN=C(C)CCCC(=O)O)[C@H](O)[C@]5(CC)C=CCN6CC[C@]43[C@@H]65)C2)C1` [4-Desacetyl VLB C-3 N^2-(4-carboxy-1-methylbutylidene)carboxhydrazide] has a pKa (pKa (66% DMF); first value listed) of 5.1, a pKa (pKa (66% DMF); second value listed) of 6.6 and a pKa (pKa (66% DMF); third value listed) of 7.7.
`CC[C@]1(O)C[C@@H]2CN(CCc3c([nH]c4ccccc34)[C@@](C(=O)OC)(c3cc4c(cc3OC)N(C)[C@H]3[C@@](O)(C(=O)NN=C(C)CCCCC(=O)O)[C@H](O)[C@]5(CC)C=CCN6CC[C@]43[C@@H]65)C2)C1` [4-Desacetyl VLB C-3 N^2-(5-carboxy-1-methylpentylidene)carboxhydrazide] gave a pKa (pKa (66% DMF); first value listed) of 5.3, a pKa (pKa (66% DMF); second value listed) of 7 and a pKa (pKa (66% DMF); third value listed) of 8.1.
In the case of `CC[C@]1(O)C[C@@H]2CN(CCc3c([nH]c4ccccc34)[C@@](C(=O)OC)(c3cc4c(cc3OC)N(C)[C@H]3[C@@](O)(C(=O)NN5C(=O)CCCCC5C)[C@H](O)[C@]5(CC)C=CCN6CC[C@]43[C@@H]65)C2)C1` (some centres unmarked) [4-Desacetyl VLB C-3 N^2-(hexahydro-2-methyl-7-oxo-1H-azepin-1-yl)carboxhydrazide sulfate salt], the IC50 [1] is reported as 0.0056 µg/mL and the “water solubility of the salt” value [2] is reported as “not completely soluble”.
For `CC[C@]1(O)C[C@@H]2CN(CCc3c([nH]c4ccccc34)[C@@](C(=O)OC)(c3cc4c(cc3OC)N(C)[C@H]3[C@@](O)(C(=O)NN)[C@H](O)[C@]5(CC)C=CCN6CC[C@]43[C@@H]65)C2)C1` [4-Desacetyl VLB C-3 carboxhydrazide], the “activity against Ridgeway osteogenic sarcoma” value [3] is listed as “active”, the “activity against Gardner lymphosarcoma” value (Gardner lymphosarcoma) is listed as “active” and the “activity against P1534(J) leukemia” value (P1534(J) leukemia) is listed as “active”.
For `CCC1(O)CN2CCc3c([nH]c4ccccc34)C(C(=O)OC)(c3cc4c(cc3OC)N(C)C3C(O)(C(=O)OC)CC5(CC)C=CCN6CCC43C65)CC(C2)C1O` (centres unmarked) [4-desacetoxy-3'-hydroxyvinblastine], the “activity in the treatment of experimental malignancies in animals” value (shortened to “activity in the treatment”) [4] is given as “active”.
In the case of `CC[C@]1(O)C[C@@H]2CN(CCc3c([nH]c4ccccc34)[C@@](C(=O)OC)(c3cc4c(cc3OC)N(C)[C@@H]3[C@]45CCN4CC=C[C@@](CC)(C[C@]3(O)C(=O)OC)[C@H]45)C2)C1` [4-desacetoxyvinblastine], the “activity in the treatment” value [4] is listed as “active”.
For `CC[C@]1(O)C[C@@H]2CN(CCc3c([nH]c4ccccc34)[C@@](C(=O)OC)(c3cc4c(cc3OC)N(C)[C@H]3[C@@](O)(C(=O)OC)[C@H](OC(C)=O)[C@]5(CC)C=CCN6CC[C@]43[C@@H]65)C2)C1` [VLB, vincaleukoblastine], the “activity in the treatment” value [4] is given as “active”.
For `CCC1CC2CN(CCc3c([nH]c4ccccc34)C(C(=O)OC)(c3cc4c(cc3OC)N(C)C3C(O)(C(=O)OC)C(OC(C)=O)C5(CC)C=CCN6CCC43C65)C2)C1` (centres unmarked) [deoxy VLB "A"], the “activity in the treatment” value [4] is given as “active”.
For `CCC1(O)CN2CCc3c([nH]c4ccccc34)C(C(=O)OC)(c3cc4c(cc3OC)N(C)C3C(O)(C(=O)OC)C(OC(C)=O)C5(CC)C=CCN6CCC43C65)CC(O)(C2)C1` (centres unmarked) [leurocolombine], the “activity in the treatment” value [4] is given as “active”.
In the case of `CC[C@]12CN3CCc4c([nH]c5ccccc45)[C@@](C(=O)OC)(c4cc5c(cc4OC)N(C=O)[C@H]4[C@@](O)(C(=O)OC)[C@H](OC(C)=O)[C@]6(CC)C=CCN7CC[C@]54[C@@H]76)C[C@@H](C3)[C@H]1O2` [leuroformine], the “activity in the treatment” value [4] is given as “active”.
For `CC[C@@]1(O)C[C@@H]2CN(CCc3c([nH]c4ccccc34)[C@@](C(=O)OC)(c3cc4c(cc3OC)N(C)[C@H]3[C@@](O)(C(=O)OC)[C@H](OC(C)=O)[C@]5(CC)C=CCN6CC[C@]43[C@@H]65)C2)C1` [leurosidine], the “activity in the treatment” value [4] is listed as “active”.
In the case of `CC[C@]12CN3CCc4c([nH]c5ccccc45)[C@@](C(=O)OC)(c4cc5c(cc4OC)N(C)[C@H]4[C@@](O)(C(=O)OC)[C@H](OC(C)=O)[C@]6(CC)C=CCN7CC[C@]54[C@@H]76)C[C@H](C3)[C@H]1O2` [leurosine], the “activity in the treatment” value [4] is listed as “active”.
In the case of `CCC1(O)CN2CCc3c([nH]c4ccccc34)C(C(=O)OC)(c3cc4c(cc3OC)N(C)C3C(O)(C(=O)OC)C(OC(C)=O)C5(CC)C=CCN6CCC43C65)CC(C2)C1O` (centres unmarked) [vincadioline], the “activity in the treatment” value [4] is given as “active”.
In the case of `CC[C@]1(O)C[C@H]2CN(CCc3c([nH]c4ccccc34)[C@@](C(=O)OC)(c3cc4c(cc3OC)N(C=O)[C@H]3[C@@](O)(C(=O)OC)[C@H](OC(C)=O)[C@]5(CC)C=CCN6CC[C@]43[C@@H]65)C2)C1` [vincristine], the “activity in the treatment” value [4] is given as “active”.
For `CC[C@]1(O)C[C@@H]2CN(CCc3c([nH]c4ccccc34)[C@@](C(=O)OC)(c3cc4c(cc3OC)N(C)[C@H]3[C@@](O)(C(N)=O)[C@H](O)[C@]5(CC)C=CCN6CC[C@]43[C@@H]65)C2)C1` [vindesine, 4-desacetyl VLB C-3 carboxamide], the “neurotoxicity compared with vincristine” value [5] is given as “less neurotoxicity than does vincristine” and the “effectiveness against vincristine-resistant leukemias” value [6] is given as “apparently effective”.
